In data set [1] the test system is HLA-A2+T2 target cells pulsed with peptide. Briefly: In vitro immunization of normal HLA-A2+ donor PBMC with Y-modified hTRT peptides. In kind it is cell-based, human. The source says:
PBMC from three normal HLA-A2+ individuals were immunized with the Y-modified peptides. The results are summarized as follows (Table VII).

Data set [2] concerns hTRT+/HLA-A2+ melanoma cell line 624. Nature of the data set: Normal donor CTL against p572(Y), lysis of melanoma 624. In kind it is cell-based, human. To be noted: normal blood donor PBMC immunized in vitro. The source says:
FIG. 6. […] The results are expressed as percent lysis and show by comparison lysis of 624 melanoma cells, and HLA-A2+T2 target cells pulsed with the p572(Y) and p572 wild type peptides, respectively. Nonspecific lysis of T2 cells is shown as a control.
CTL generated against p572 were also able to lyze the hTRT+/HLA-A2+ melanoma cell line 624. The antigen-recognition activity of T cells is intimately linked with recognition of MHC (HLA in humans) molecules.

For a further data set, the target named is T1, HLA-A2.1 molecule (Homo sapiens, UniProt P04439, D140Y/D185E/D98H/E176V/E277Q/G131W/G231S/I119V/I121R/I166T/I218V/L300P/L318F/N151K/N90K/P208A/P217A/Q86G/Q94H/R138H/R169H/T345S).
T1 construct: endogenous in cells; host or cells: human T2 cells (TAP-, HLA-A2.1+)
Nature of the data set: HLA-A2.1 binding/stabilization assay on TAP- T2 cells. To be noted: time required for a 50% reduction in mean fluorescence intensity. The protocol: The relative avidity was measured as previously described (25). Briefly, T2 cells were incubated overnight at 37° C. in RPMI supplemented with human β2-microglobulin (100 ng/ml) (Sigma, St. Louis, Mo.) in the absence (negative control) or presence of the test peptide or the reference peptide 4761[…]484 (SEQ ID NO:7) of HIV-1 reverse transcriptase at various final peptide concentrations (0.1-100 μM). Cells were incubated with Brefeldin A (0.5 μg/ml) for one hour and subsequently stained with a saturating concentration of monoclonal antibody BB7.2 for 30 minutes at +4° C. followed by washing and a second incubation with a goat antibody to mouse Ig (Fab′)2 conjugated to FITC (Caltag, South San Francisco). Cells were then washed, fixed with 1% paraformaldehyde and analyzed in a FACs Calibur cytofluorimeter (Becton & Dickinson, San Jose, Calif.). The mean fluorescence intensity of each concentration minus that of cells without peptide was used as an estimate of peptide binding. […] Dissociation of the test peptide from the HLA-A2.1 molecule reflects the half-life of fluorescence intensity of the peptide/MHC complex over time. The half-life of the complex (DC50) refers to the time (hours) required for a 50% reduction of the TO mean fluorescence intensity (25). Synthetic peptides 571[…]579 (SEQ ID NO:5) of carcinoembryonic antigen (CEA) and 476[…]486 (SEQ ID NO:6) of melanoma antigen gp100 were used as internal controls to account for inter-tests variability and for consistency with previously reported RA and DC50 measures (25).
Since the immunogenicity of MHC Class I-restricted peptides reflects to some degree their binding and stabilizing capacity for MHC Class I molecules (31-33) Applicant sought direct proof of the strength of interaction between the two hTRT peptides and the HLA-A2.1 molecule in a conventional binding/stabilization assay that uses the antigen-transporting deficient (TAP-) HLA-A2.1+ human T2 cells. […] The stability of each peptide bound to HLA-A2.1 was measured as the half-life of the complex

The subject of another data set is HLA-A2+ CD34+ cells. The following applies: reference 24; cited from earlier work.
In data set [3] the target is T2, HLA-A2.1 molecule on TAP-deficient human T2 cells (human).
T2 construct: MHC class I molecule on the surface of T2 cells; also called MHC Class I
Nature of the data set: T2 cell HLA-A2.1 binding/stabilization assay, BB7.2 flow cytometry; ratio of peptide concentration giving 20% of maximal binding, against reference peptide [..] (SEQ ID NO:7) of HIV-1 reverse transcriptase; lower is stronger. The procedure: Briefly, T2 cells were incubated overnight at 37° C. in RPMI supplemented with human β2-microglobulin (100 ng/ml) (Sigma, St. Louis, Mo.) in the absence (negative control) or presence of the test peptide or the reference peptide 476_1[…]$484$ (SEQ ID NO:7) of HIV-1 reverse transcriptase at various final peptide concentrations (0.1-100 µM). Cells were incubated with Brefeldin A (0.5 µg/ml) for one hour and subsequently stained with a saturating concentration of monoclonal antibody BB7.2 for 30 minutes at +4° C. followed by washing and a second incubation with a goat antibody to mouse Ig (Fab')2 conjugated to FITC (Caltag, South San Francisco). Cells were then washed, fixed with 1% paraformaldehyde and analyzed in a FACs Calibur cytofluorimeter (Becton & Dickinson, San Jose, Calif.). The mean fluorescence intensity of each concentration minus that of cells without peptide was used as an estimate of peptide binding. […] Dissociation of the test peptide from the HLA-A2.1 molecule reflects the half-life of fluorescence intensity of the peptide/MHC complex over time. The half-life of the complex (DC50) refers to the time (hours) required for a 50% reduction of the TO mean fluorescence intensity (25). Synthetic peptides $571$[…]$579$ (SEQ ID NO:5) of carcinoembryonic antigen (CEA) and $476$[…]$486$ (SEQ ID NO:6) of melanoma antigen gp100 were used as internal controls to account for intertests variability and for consistency with previously reported RA and DC50 measures (25).
Since the immunogenicity of MHC Class I-restricted peptides reflects to some degree their binding and stabilizing capacity for MHC Class I molecules (31-33) Applicant sought direct proof of the strength of interaction between the two hTRT peptides and the HLA-A2.1 molecule in a conventional binding/stabilization assay that uses the antigen-transporting deficient (TAP-) HLA-A2.1+ human T2 cells.
On the technique in general: In flow cytometry, cells or beads pass a laser one at a time.

Peptide text beside a SMILES is read from it.

With “YELLRSFFYV (listed as Homo sapiens) [p555(Y), Y-modified hTRT peptide p555]”, the “CTL against target cells pulsed with p555(Y)” value is 4% in data set [1] (donor 218), 8% in data set [1] (donor 219) and 1% in data set [1] (donor 222).
In the case of “YLARCALFV (listed as Homo sapiens) [p152(Y), Y-modified hTRT peptide p152]”, the “CTL against target cells pulsed with p152(Y)” value in data set [1] (donor 218) is on record as 7%; in data set [1] (donor 219) it was 2%; in data set [1] (donor 222), 1%.
As for “YLFFYRKSV (listed as Homo sapiens) [p572(Y), Y-modified hTRT peptide p572]”, the figures for the “CTL against target cells pulsed with p572(Y)” value in data set [1] (donor 218), in data set [1] (donor 219) and in data set [1] (donor 222) were 48-50%, 4% and 27%, respectively. The results for the “CTL against target cells pulsed with p572 wild type” value in data set [1] (donor 218) and in data set [1] (donor 222) were 26-46% and 5%, respectively. In data set [2], the “lysis of melanoma cell line 624 in words” value is on record as “kill melanoma cells 624”.
Regarding `CC(C)C[C@H](NC(=O)[C@H](Cc1ccccc1)NC(=O)[C@H](CC(=O)O)NC(=O)[C@H](CC(=O)O)NC(=O)[C@@H](NC(=O)[C@H](CC(C)C)NC(=O)[C@@H](N)CCCNC(=N)N)C(C)C)C(=O)N[C@@H](CC(C)C)C(=O)N[C@H](C(=O)O)C(C)C` [p865] (H-RLVDDFLLV-OH), the “DC50 (half-life of peptide/HLA-A2.1 complex)” value at HLA-A2.1 molecule lay in the range of 2 to 4 h.
Regarding RLFFYRKSV [p572 wild type], the “lysis of melanoma cell line 624 in words” value in data set [2] is given as “able to lyze”.
For `CC[C@H](C)[C@H](N)C(=O)N[C@@H](CC(C)C)C(=O)N[C@@H](C)C(=O)N[C@@H](CCCCN)C(=O)N[C@@H](Cc1ccccc1)C(=O)N[C@@H](CC(C)C)C(=O)N[C@@H](Cc1c[nH]cn1)C(=O)N[C@@H](Cc1c[nH]c2ccccc12)C(=O)N[C@@H](CC(C)C)C(=O)O` [p540] (H-ILAKFLHWL-OH), at HLA-A2.1 molecule, the “DC50 (half-life of peptide/HLA-A2.1 complex)” value lay within 4 to 6 h. Besides, the “lysis of HLA-A2+ CD34+ cells by CTL raised in normal individuals” value with HLA-A2+ CD34+ cells is recorded as “did not lyse”.
As to “VLYRYGSFSV (listed as Homo sapiens) [gp100 p476, peptide of human melanoma antigen gp100, internal control]”, the “DC50 (half-life of peptide/HLA-A2.1 complex)” value with HLA-A2.1 molecule lay within 4 to 6 h.

B1: hTRT p540 synthetic peptide (residues 540-548 of human telomerase reverse transcriptase) (peptide)
peptide: ILAKFLHWL
notes: Synthetic 9mer, bought from the Biopolymer Synthesis Center (CalTech)
Turning to B1, the “Relative Avidity (RA)” value in data set [3] stood at 2.9.
Same read-out and setting: as for VLYRYGSFSV (bought from Neosystem) [gp100 p476 synthetic peptide of human melanoma antigen gp100], the figure is 9.

B2: hTRT p865 synthetic peptide (residues 865-873 of human telomerase reverse transcriptase) (peptide)
peptide: RLVDDFLLV
notes: as for B1
For the molecule B2, in data set [3], the “Relative Avidity (RA)” value turned out to be 2.5.

The values are drawn from patent publication US7388071B2, “Composition and method for inducing and enhancing a telomerase reverse transcriptase-reactive cytotoxic T lymphocyte response” (The Regents of the University of California, priority 2000, dated 2008).
